Measurements from publication PMC6237158, “HPLC–UV assay for the evaluation of inhibitors of plasma amine oxidase using crude bovine plasma” (Journal of Enzyme Inhibition and Medicinal Chemistry, 2018).
Where two headings read alike, the source gives them in different places.

Legend:
purified bovine PAO [1] = target: T1, purified bovine PAO (Bos taurus, UniProt Q29437); parameters: method as in PMID 27129976, PMID 29550344; details: substrate 250 µM, 18 µg purified PAO in final volume 100 µL; mean ± SD, n = 3; cited from earlier work
T1 construct: bovine PAO purified from bovine plasma; purchased Abnova, Taipei, Taiwan delivered via Biozol, Eching, Germany; host or cells: bovine plasma
T1 sequence (Q29437 17-762): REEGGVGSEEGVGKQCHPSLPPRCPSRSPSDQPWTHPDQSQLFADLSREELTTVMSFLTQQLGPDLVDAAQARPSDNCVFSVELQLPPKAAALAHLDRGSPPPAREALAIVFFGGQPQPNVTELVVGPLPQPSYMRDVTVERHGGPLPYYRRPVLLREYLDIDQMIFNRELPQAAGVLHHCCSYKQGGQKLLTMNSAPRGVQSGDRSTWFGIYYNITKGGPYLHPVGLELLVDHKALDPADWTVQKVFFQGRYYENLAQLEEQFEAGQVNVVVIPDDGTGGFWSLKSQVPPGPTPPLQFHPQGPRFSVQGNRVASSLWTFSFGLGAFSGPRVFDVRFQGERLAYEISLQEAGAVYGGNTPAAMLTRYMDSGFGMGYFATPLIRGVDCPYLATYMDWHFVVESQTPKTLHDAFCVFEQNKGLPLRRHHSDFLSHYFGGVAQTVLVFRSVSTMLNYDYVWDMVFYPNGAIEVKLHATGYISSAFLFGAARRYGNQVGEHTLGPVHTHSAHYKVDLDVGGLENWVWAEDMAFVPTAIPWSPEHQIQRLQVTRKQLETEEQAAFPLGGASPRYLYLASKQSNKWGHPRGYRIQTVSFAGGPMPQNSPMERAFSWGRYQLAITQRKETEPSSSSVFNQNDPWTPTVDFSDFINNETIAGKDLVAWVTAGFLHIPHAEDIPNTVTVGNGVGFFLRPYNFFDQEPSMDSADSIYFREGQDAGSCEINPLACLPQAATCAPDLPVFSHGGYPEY

PAO in bovine plasma [2] = target: T2, PAO in bovine plasma (Bos taurus, UniProt Q29437); experiment: Conversion of amine substrates by bovine plasma (HPLC-UV); assay type: biochemical; details: substrate 250 µM, 6 µL bovine plasma in final volume 100 µL; mean ± SD, n = 3
T2 construct: crude bovine plasma can be used as enzyme source in this assay instead of the purified enzyme; tissue Coesfelder Fleischhandelsgesellschaft, Bernd Grewe (Coesfeld, Germany); host or cells: heparinised bovine blood plasma
T2 sequence (Q29437 17-762): T1 sequence (Q29437 17-762)
Procedure: Determination of the conversion rates of different amine substrates by bovine plasma. The conversion rates of the amine substrates 1–7 to the corresponding aldehydes 8–14 by bovine plasma was measured as described previously, with the modification that the solution of the isolated PAO in PBS (0.19 mg/mL) (95 µL) was replaced by PBS (89 µL) and bovine plasma (6 µL).

purified PAO [3] = target: T3, purified PAO (Bos taurus, UniProt Q29437); parameters: method as in PMID 29550344; details: after pre-incubation 15 min, read-out: IC50, purified enzyme, cited from earlier work
T3 construct: we used the enzyme isolated and purified from bovine plasma; host or cells: bovine plasma
T3 sequence (Q29437 17-762): T1 sequence (Q29437 17-762)

PAO in bovine plasma [4] = target: T2, PAO in bovine plasma; experiment: Inhibitor screening without pre-incubation of bovine plasma with the inhibitor (HPLC-UV); assay type: biochemical; details: n = 3
Procedure: Determination of the IC50-values of the PAO inhibitor 2-(4-phenylphenyl)acetohydrazide (16) with bovine plasma using different substrates.
General procedure for inhibitor screening without pre-incubation of bovine plasma with the inhibitor. A mixture of a DMSO solution of 4 (10 mM) (2.5 µL), a DMSO solution of the appropriate inhibitor (concentration variable) (2.5 µL) and PBS buffer (pH 7.4) (89 µL) was treated with bovine plasma (6 µL). After incubation at 37 °C for 45 min, the enzyme reaction was terminated by the addition of acetonitrile (100 µL). The sample was cooled in an ice bath for 10 min and centrifuged at 12,000 × g and 10 °C for 5 min. An aliquot of the supernatant (150 µL) was diluted with aqueous TRIS buffer (100 mM, pH 8.5 at 20 °C) (150 µL), allowed to stand at room temperature for 30 min, and analysed by HPLC. The HPLC–UV-system consisted of a Thermo Scientific Dionex UltiMate 3000 system including an autosampler and a variable wavelength detector (ThermoFisher Scientific, Germering, Germany). Separation was achieved on a Luna 3 u C8(2) analytical column (3 mm inside diameter× 150 mm, particle size 3 µm) (Phenomenex, Aschaffenburg, Germany) protected with a Phenomenex Phenyl guard column (3 mm inside diameter ×4 mm). The injection volume was 50 µL. Temperature of the autosampler was set to 10 °C, the temperature of the column oven was 20 °C. HPLC analysis was run isocratically using acetonitrile/aqueous TRIS buffer (50 mM, pH 8.5 at 20 °C) (35:65, v/v) as eluent at a flow rate of 0.4 mL/min. […] Controls with DMSO (2.5 µL) instead of a DMSO solution of the inhibitor (2.5 µL) were prepared in the same manner in parallel (n = 3). Furthermore, a blank incubation, in which the enzyme solution was replaced by the buffer used for dissolving the enzyme, was carried out. The relative inhibition values were determined at different inhibitor concentrations and calculated as the ratio of the areas of the 1,3-oxazolidine 15 peaks formed in presence and absence of the test compounds (corrected by the blank value). […] The experiments using benzylamine (7) as substrate were carried out in the same way with the modifications that aliquots (150 µL) of the supernatants obtained after addition of acetonitrile and centrifugation were diluted with water (150 µL) and acetonitrile/aqueous ammonium acetate solution (10 mM, pH 6) (45:55, v/v) was used as eluent at a detection wavelength of 250 nm.

purified bovine PAO [5] = target: T1, purified bovine PAO; experiment: Inhibition of purified bovine PAO without pre-incubation (HPLC-UV); assay type: biochemical; details: substrate 3-(5-phenyl-2H-tetrazol-2-yl)propan-1-amine (1), n = 3
Procedure: Determination of the IC50-values of the PAO inhibitor 2-(4-phenylphenyl)acetohydrazide (16) with bovine plasma using different substrates. The IC50-values were measured as described previously (without pre-incubation),[33] with the modification that the solution of the isolated PAO in PBS (0.19 mg/mL) (95 µL) was replaced by PBS (89 µL) and bovine plasma (6 µL).
To evaluate the comparability of inhibition data obtained with the purified enzyme and the crude plasma, we measured the inhibition values of the known PAO inhibitor 2-(4-phenylphenyl)acetohydrazide (16) (for formula see Table 3) using the different amine substrates 1–7. In these experiments, the enzyme was added to a solution containing both substrate and inhibitor. Thus, no pre-incubation of enzyme with the inhibitor took place. […] This may be due to the binding of the inhibitor to plasma proteins leading to a somewhat reduced effective concentration. In addition, consistent differences in the apparent inhibitory potency of the inhibitor 16 in dependence of the substrate applied could be registered for both enzyme preparations. The reason for these fluctuating values lies in strongly different binding affinities of the substrates to the enzyme as discussed recently. […]

PAO in bovine plasma [6] = target: T2, PAO in bovine plasma; experiment: Inhibitor screening with pre-incubation of bovine plasma with the inhibitor (HPLC-UV); assay type: biochemical; details: for IC50: with pre-incubation of enzyme and inhibitor (15 min, 37 °C), n = 3; for block of substrate transformation, bovine plasma: 10 µM, pre-incubation conditions
Procedure: General procedure for inhibitor screening with pre-incubation of bovine plasma with the inhibitor. To a DMSO solution of the appropriate inhibitor (concentration variable) (2.5 µL) was added a dilution of bovine plasma in PBS (95 µL), prepared by mixing 89 volume parts of PBS with 6 volume parts of bovine plasma. The resulting mixture was pre-incubated at 37 °C for 15 min. Then the incubation was started at 37 °C by addition of a solution of the substrate 4 (10 mM) in DMSO (2.5 µL). After 45 min, the enzyme reaction was terminated by the addition of acetonitrile (100 µL). The samples were further treated and analysed as described above in the inhibition experiments done without pre-incubation. Controls (n = 3) and a blank were prepared analogously. The experiments using benzylamine (7) as substrate were carried out in the same way with the modifications that aliquots (150 µL) of the supernatants obtained after addition of acetonitrile and centrifugation were diluted with water (150 µL), and acetonitrile/aqueous ammonium acetate solution (10 mM, pH 6) (45:55, v/v) was used as eluent at a detection wavelength of 250 nm.

purified bovine PAO [7] = target: T1, purified bovine PAO; parameters: method as in PMID 27129976; details: without pre-incubation, n = 3, cited from earlier work
MAO A = tested on: MAO A; parameters: method as in PMID 29550344; details: 0.1 µM; pre-incubation conditions; cited from earlier work
purified PAO [8] = target: T3, purified PAO; experiment: Inhibition of purified PAO after pre-incubation of enzyme with inhibitor; assay type: biochemical, bovine; details: 10 µM; pre-incubation conditions
Source text: 2-(4-Phenylphenyl)acetohydrazide (16) is known to inhibit PAO by forming covalent bonds with the cofactor topaquinone.
Finally, we wanted to confirm that the amine oxidases MAO A, MAO B, and DAO are not involved in substrate conversion by bovine plasma using specific inhibitorsof these enzymes.

DAO = tested on: DAO; parameters: method as in PMID 29550344; details: 10 µM; pre-incubation conditions; cited from earlier work
[9] = substrate benzylamine (7), without pre-incubation of enzyme and inhibitor
[10] = substrate hexan-1-amine 4, without pre-incubation of enzyme and inhibitor

## NCCCn1nnc(-c2ccccc2)n1 [Compound 1, 3-(5-Phenyl-2H-tetrazol-2-yl)propan-1-amine]
Purified bovine PAO [1]
  Conversion of substrate, Purified PAO: 12 ± 0.8%
PAO in bovine plasma [2]
  Conversion of substrate, Bovine plasma: 5 ± 0.8%

## NCCCCn1nnc(-c2ccccc2)n1 [Compound 2, 4-(5-Phenyl-2H-tetrazol-2-yl)butan-1-amine]
Purified bovine PAO [1]
  Conversion of substrate, Purified PAO: 55 ± 2.6%
PAO in bovine plasma [2]
  Conversion of substrate, Bovine plasma: 66 ± 5.6%

## NCCCCCn1nnc(-c2ccccc2)n1 [Compound 3, 5-(5-Phenyl-2H-tetrazol-2-yl)pentan-1-amine]
Purified bovine PAO [1]
  Conversion of substrate, Purified PAO: 45 ± 1.3%
PAO in bovine plasma [2]
  Conversion of substrate, Bovine plasma: 51 ± 4.3%

## NCCCCCCn1nnc(-c2ccccc2)n1 [Compound 4, 6-(5-Phenyl-2H-tetrazol-2-yl)hexan-1-amine]
Purified bovine PAO [1]
  Conversion of substrate, Purified PAO: 57 ± 1.4%
PAO in bovine plasma [2]
  Conversion of substrate, Bovine plasma: 51 ± 1.5%

## NCCCCCCCn1nnc(-c2ccccc2)n1 [Compound 5, 7-(5-Phenyl-2H-tetrazol-2-yl)heptan-1-amine]
Purified bovine PAO [1]
  Conversion of substrate, Purified PAO: 30 ± 1.1%
PAO in bovine plasma [2]
  Conversion of substrate, Bovine plasma: 23 ± 2.1%

## NCCCCCCCCn1nnc(-c2ccccc2)n1 [Compound 6, 8-(5-Phenyl-2H-tetrazol-2-yl)octan-1-amine]
Purified bovine PAO [1]
  Conversion of substrate, Purified PAO: 25 ± 1.2%
PAO in bovine plasma [2]
  Conversion of substrate, Bovine plasma: 26 ± 1.8%

## NCc1ccccc1 [Compound 7, Benzylamine]
Purified bovine PAO [1]
  Conversion of substrate, Purified PAO: 20 ± 2.1%
PAO in bovine plasma [2]
  Conversion of substrate, Bovine plasma: 30 ± 2.0%

## NNC(=O)Cc1ccc(-c2ccccc2)cc1 [Compound 16, 2-(4-phenylphenyl)acetohydrazide]
Purified PAO [3]; substrate 4
  IC50: 290 nM
Purified PAO [3]; substrate benzylamine
  IC50: 110 nM
PAO in bovine plasma [4]; substrate 4-(5-phenyl-2H-tetrazol-2-yl)butan-1-amine (2), without pre-incubation
  IC50: 5300 ± 490 nM
PAO in bovine plasma [4]; substrate 5-(5-phenyl-2H-tetrazol-2-yl)pentan-1-amine (3), without pre-incubation
  IC50: 9700 ± 780 nM
PAO in bovine plasma [4]; substrate 8-(5-phenyl-2H-tetrazol-2-yl)octan-1-amine (6), without pre-incubation
  IC50: 16000 ± 3400 nM
PAO in bovine plasma [4]; [9]
  IC50: 290 ± 70 nM
PAO in bovine plasma [4]; [10]
  IC50: 17000 ± 800 nM
Purified bovine PAO [5]
  IC50: 53000 ± 3000 nM
PAO in bovine plasma [6]; substrate benzylamine
  IC50: 130 ± 30 nM
PAO in bovine plasma [6]; substrate hexan-1-amine 4
  IC50: 230 ± 40 nM
Purified bovine PAO [7]; substrate 4-(5-phenyl-2H-tetrazol-2-yl)butan-1-amine (2)
  IC50: 2500 ± 300 nM
Purified bovine PAO [7]; substrate 5-(5-phenyl-2H-tetrazol-2-yl)pentan-1-amine (3)
  IC50: 5400 ± 90 nM
Purified bovine PAO [7]; substrate 6-(5-phenyl-2H-tetrazol-2-yl)hexan-1-amine (4)
  IC50: 11000 ± 1200 nM
Purified bovine PAO [7]; substrate 8-(5-phenyl-2H-tetrazol-2-yl)octan-1-amine (6)
  IC50: 11000 ± 850 nM
Purified bovine PAO [7]; substrate benzylamine (7)
  IC50: 120 ± 30 nM

## NNC(=O)Cc1cccc(-c2ccccc2)c1 [Compound 18, 2-(3-Phenylphenyl)acetohydrazide]
PAO in bovine plasma [4]; [9]
  IC50: 620 ± 50 nM
PAO in bovine plasma [4]; [10]
  IC50: 20000 ± 1000 nM
PAO in bovine plasma [6]; substrate benzylamine
  IC50: 240 ± 30 nM
PAO in bovine plasma [6]; substrate hexan-1-amine 4
  IC50: 380 ± 20 nM

## C#CCN(C)CCCOc1ccc(Cl)cc1Cl [clorgiline]
MAO A
  reduction of MAO A activity: more than 95%
Purified PAO [8]
  block of substrate transformation, purified PAO: neither of these compounds blocked the substrate transformation
PAO in bovine plasma [6]
  block of substrate transformation, bovine plasma: neither of these compounds blocked the substrate transformation

## NC(=Nc1ccccc1)NC(=O)c1nc(Cl)c(N)nc1N [phenamil]
Purified PAO [8]
  block of substrate transformation, purified PAO: neither of these compounds blocked the substrate transformation
DAO
  inhibition of DAO: 43%
PAO in bovine plasma [6]
  block of substrate transformation, bovine plasma: neither of these compounds blocked the substrate transformation

## C#CCN(C)[C@H](C)Cc1ccccc1 [selegiline]
Purified PAO [8]
  block of substrate transformation, purified PAO: neither of these compounds blocked the substrate transformation
PAO in bovine plasma [6]
  block of substrate transformation, bovine plasma: neither of these compounds blocked the substrate transformation
